The target of one experiment is T1, CDK2/CycE (Homo sapiens, UniProt P24941).
T1 construct: purchased ProQinase GmbH (Freiburg, Germany); host or cells: insect cells (Sf9)
As to the kind of experiment: CDK2/CycE kinase assay (TR-FRET, 2 mM ATP). Conditions: 2 mM ATP (high ATP); median; read-out: CDK2/CyclinE, 2 mM ATP (high ATP), IC50 (median). Type of experiment: biochemical. The method, boiled down:
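GST-tagged human CDK2 and CycE from Sf9 cells, about 10 ng/ml, pre-incubated 15 min at 22 °C with compound in Tris/HCl pH 8.0 buffer. Reaction with 2 mM ATP and 0.75 µM biotinylated peptide for 25 min at 22 °C. Phospho-RB antibody TR-FRET (665/620 nm ratio) read after 1 h; data normalised to no-inhibitor and no-enzyme controls.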

For experiment [1], the system named is CAL-120, human breast adenocarcinoma cells. In words: Proliferation assay CAL-120 (crystal violet, 4 days). It is filed as cell-based. Particulars: Homo sapiens, CAL-120 cells, median, read-out: Prolif-CAL-120, IC50-[mol/l] (median). The method, boiled down: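 Plated 4,000 cells/well, 10% FCS; 24 h later treated 0.01-10 µmol/L cpd (DMSO 0.1%), 4 d. Fix glutaraldehyde, stain 0.1% crystal violet pH 3.0, elute acetic acid, A595. Normalized to t0 plate/untreated; 4-param IC50.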

Read-outs that look alike come from different tables or passages of the source. Where only a bound is given, the exact number is not on record here.

For the compound `Fc1cccc(-c2nnc(CNc3nc(N4CCOCC4)nc4c(C(F)(F)F)cnn34)[nH]2)c1` [Example 385, N-{[5-(3-fluorophenyl)-4H-1,2,4-triazol-3-yl]methyl}-2-(morpholin-4-yl)-8-(trifluoromethyl)pyrazolo[1,5-a][1,3,5]triazin-4-amine], the IC50 on CDK2/CycE was found to be 1810 nM; in experiment [1] (CAL-120, 96 h), 25.9 nM.
`Fc1cc2nc(CNc3nc(N4CC5CCC(C4)N5)nc4c(C5CC5)cnn34)[nH]c2cc1F` [Example 325, 8-cyclopropyl-2-(3,8-diazabicyclo[3.2.1]octan-3-yl)-N-[(5,6-difluoro-1H-benzimidazol-2-yl)methyl]pyrazolo[1,5-a][1,5]triazin-4-amine]: the IC50 on CDK2/CycE was over 20000 nM; in experiment [1] (CAL-120, 96 h) it was 1.48 nM.
For `CN1CCN(c2nc(NCc3nc4c(F)cccc4[nH]3)n3ncc(Cl)c3n2)CC1.O=CO` [Example 362, formic acid 8-chloro-N-[(4-fluoro-1H-benzimidazol-2-yl)methyl]-2-(4-methylpiperazin-1-yl)pyrazolo[1,5-a][1,3,5]triazin-4-amine], the IC50 on CDK2/CycE was found to be 9310 nM; in experiment [1] (CAL-120, 96 h) it was 8.15 nM.
In the same order, the values of `Fc1cc2nc(CNc3nc(N4CCOCC4)nc4c(C(F)(F)F)cnn34)[nH]c2cc1F` [Example 333, N-[(5,6-difluoro-1H-benzimidazol-2-yl)methyl]-2-(morpholin-4-yl)-8-(trifluoromethyl)pyrazolo[1,5-a][1,3,5]triazin-4-amine] are over 20000 nM and 3.1 nM.
On to `CN1CCN(c2nc(NCc3nc4c(F)c(Cl)ccc4[nH]3)n3ncc(C4CC4)c3n2)CC1` [Example 371, N-[(5-chloro-4-fluoro-1H-benzimidazol-2-yl)methyl]-8-cyclopropyl-2-(4-methylpiperazin-1-yl)pyrazolo[1,5-a][1,3,5]triazin-4-amine], for which the IC50 is over 20000 nM at CDK2/CycE and 3.9 nM in experiment [1] (CAL-120, 96 h).
For the compound `CN1CCC(Oc2nc(NCc3nc4ccccc4[nH]3)n3ncc(Br)c3n2)CC1` [Example 389, N-[(1H-benzimidazol-2-yl)methyl]-8-bromo-2-[(1-methylpiperidin-4-yl)oxy]pyrazolo[1,5-a][1,3,5]triazin-4-amine], the IC50 was over 20000 nM on CDK2/CycE and 52.7 nM in experiment [1] (CAL-120, 96 h).
For the compound `FC(F)(F)Oc1ccc2[nH]c(CNc3nc(N4C[C@H]5CC[C@@H](C4)N5)nc4c(Br)cnn34)nc2c1` [Example 382, 8-bromo-2-[(1R,5S)-3,8-diazabicyclo[3.2.1]octan-3-yl]-N-{[5-(trifluoromethoxy)-1H-benzimidazol-2-yl]methyl}pyrazolo[1,5-a][1,3,5]triazin-4-amine], the IC50 at CDK2/CycE stood at 14200 nM; in experiment [1] (CAL-120, 96 h), 12.4 nM.
For the compound `Cc1cc2nc(CNc3nc(N4CC5CCC(C4)N5)nc4c(Br)cnn34)[nH]c2cc1C` [Example 353, 8-bromo-2-(3,8-diazabicyclo[3.2.1]octan-3-yl)-N-[(5,6-dimethyl-1H-benzimidazol-2-yl)methyl]pyrazolo[1,5-a][1,3,5]triazin-4-amine], the IC50 at CDK2/CycE was 2860 nM; in experiment [1] (CAL-120, 96 h), 1.41 nM.
Regarding `FC(F)(F)Oc1cccc2[nH]c(CNc3nc(N4C[C@H]5CC[C@@H](C4)N5)nc4c(Br)cnn34)nc12` [Example 381, 8-bromo-2-[(1R,5S)-3,8-diazabicyclo[3.2.1]octan-3-yl]-N-{[4-(trifluoromethoxy)-1H-benzimidazol-2-yl]methyl}pyrazolo[1,5-a][1,3,5]triazin-4-amine], the IC50 was over 20000 nM on CDK2/CycE and 30.8 nM in experiment [1] (CAL-120, 96 h).
With `CN(CC(C)(C)O)c1nc(NCc2nc3c(F)c(Cl)ccc3[nH]2)n2ncc(Br)c2n1` [Example 374, 1-[(8-bromo-4-{[(5-chloro-4-fluoro-1H-benzimidazol-2-yl)methyl]amino}pyrazolo[1,5-a][1,3,5]triazin-2-yl)(methyl)amino]-2-methylpropan-2-ol], the IC50 at CDK2/CycE amounted to 3120 nM; in experiment [1] (CAL-120, 96 h) it was 2.8 nM.
The like results for `Brc1cnn2c(NCc3nc4ccccc4[nH]3)nc(N3CCN4CCC3CC4)nc12` [Example 349, N-[(1H-benzimidazol-2-yl)methyl]-8-bromo-2-(1,4-diazabicyclo[3.2.2]nonan-4-yl)pyrazolo[1,5-a][1,3,5]triazin-4-amine] were, in that order, 1820 nM and 3.76 nM.
Consider `C[C@H]1CN(C)CCN1c1nc(NCc2nc3c(F)cccc3[nH]2)n2ncc(C(F)(F)F)c2n1` [Example 388, 2-[(2S)-2,4-dimethylpiperazin-1-yl]-N-[(4-fluoro-1H-benzimidazol-2-yl)methyl]-8-(trifluoromethyl)pyrazolo[1,5-a][1,3,5]triazin-4-amine], for which the IC50 on CDK2/CycE was over 20000 nM; in experiment [1] (CAL-120, 96 h) it was 22.5 nM.
With `Fc1c(Cl)ccc2[nH]c(CNc3nc(N4CC5CCC(C4)N5)nc4c(Br)cnn34)nc12` [Example 380, 8-bromo-N-[(5-chloro-4-fluoro-1H-benzimidazol-2-yl)methyl]-2-(3,8-diazabicyclo[3.2.1]octan-3-yl)pyrazolo[1,5-a][1,3,5]triazin-4-amine], the IC50 at CDK2/CycE was 9260 nM; in experiment [1] (CAL-120, 96 h), 1.72 nM.
As to `Cc1cc2nc(CNc3nc(N(C)CC(C)(C)O)nc4c(C5CC5)cnn34)[nH]c2cc1C` [Example 321, 1-[(8-cyclopropyl-4-{[(5,6-dimethyl-1H-benzimidazol-2-yl)methyl]amino}pyrazolo[1,5-a][1,3,5]triazin-2-yl)(methyl)amino]-2-methylpropan-2-ol], the IC50 at CDK2/CycE worked out at 1000 nM; in experiment [1] (CAL-120, 96 h), 2.35 nM.
Turning to `Cc1ccnc2[nH]c(CNc3nc(N4CCOCC4)nc4c(C(C)C)cnn34)nc12` [Example 28, N-[(7-methyl-3H-imidazo[4,5-b]pyridin-2-yl)methyl]-2-(morpholin-4-yl)-8-(propan-2-yl)pyrazolo[1,5-a][1,3,5]triazin-4-amine], the IC50 on CDK2/CycE was found to be 6020 nM; in experiment [1] (CAL-120, 96 h), 39.1 nM.
As to `Fc1c(Cl)ccc2[nH]c(CNc3nc(N4CCOCC4)nc4c(Br)cnn34)nc12` [Example 372, 8-bromo-N-[(5-chloro-4-fluoro-1H-benzimidazol-2-yl)methyl]-2-(morpholin-4-yl)pyrazolo[1,5-a][1,3,5]triazin-4-amine], the IC50 came out at 3650 nM at CDK2/CycE and 2.94 nM in experiment [1] (CAL-120, 96 h).
On to `Fc1cc2nc(CNc3nc(N4CC5CCC(C4)N5)nc4c(Br)cnn34)[nH]c2cc1Cl` [Example 348, 8-bromo-N-[(6-chloro-5-fluoro-1H-benzimidazol-2-yl)methyl]-2-(3,8-diazabicyclo[3.2.1]octan-3-yl)pyrazolo[1,5-a][1,3,5]triazin-4-amine], for which the IC50 came out at 13200 nM at CDK2/CycE and 1.14 nM in experiment [1] (96 h).
Turning to `CN1CCN(c2nc(NCc3nc4c(OC(F)(F)F)cccc4[nH]3)n3ncc(Br)c3n2)CC1` [Example 376, 8-bromo-2-(4-methylpiperazin-1-yl)-N-{[4-(trifluoromethoxy)-1H-benzimidazol-2-yl]methyl}pyrazolo[1,5-a][1,3,5]triazin-4-amine], the IC50 on CDK2/CycE is over 20000 nM; in experiment [1] (CAL-120, 96 h) it was 36.8 nM.
Take `CN1CCN(c2nc(NCc3nc4cc(F)c(F)cc4[nH]3)n3ncc(Br)c3n2)CC1` [Example 346, 8-bromo-N-[(5,6-difluoro-1H-benzimidazol-2-yl)methyl]-2-(4-methylpiperazin-1-yl)pyrazolo[1,5-a][1,3,5]triazin-4-amine]: the IC50 on CDK2/CycE is over 20000 nM; in experiment [1] (CAL-120, 96 h), 2.66 nM.
With `FC(F)(F)Oc1cccc2[nH]c(CNc3nc(N4CCOCC4)nc4c(Br)cnn34)nc12` [Example 375, 8-bromo-2-(morpholin-4-yl)-N-{[4-(trifluoromethoxy)-1H-benzimidazol-2-yl]methyl}pyrazolo[1,5-a][1,3,5]triazin-4-amine], the IC50 was 11900 nM on CDK2/CycE and 68.6 nM in experiment [1] (CAL-120, 96 h).
Turning to `CC[C@H](CO)Nc1nc(NCc2nc3ccccc3[nH]2)n2ncc(Br)c2n1` [Example 368, (2R)-2-[(4-{[(1H-benzimidazol-2-yl)methyl]amino}-8-bromopyrazolo[1,5-a][1,3,5]triazin-2-yl)amino]butan-1-ol], the IC50 on CDK2/CycE worked out at 885 nM; in experiment [1] (CAL-120, 96 h), 94.9 nM.
Turning to `FC(F)(F)c1ccc2[nH]c(CNc3nc(N4CC5CCC(C4)N5)nc4c(C5CC5)cnn34)nc2c1` [Example 327, 8-cyclopropyl-2-(3,8-diazabicyclo[3.2.1]octan-3-yl)-N-{[5-(trifluoromethyl)-1H-benzimidazol-2-yl]methyl}pyrazolo[1,5-a][1,3,5]triazin-4-amine], the IC50 at CDK2/CycE is over 18700 nM; in experiment [1] (CAL-120, 96 h), 2.28 nM.
The like results for `CN1CCN(c2nc(NCc3nc4cc(C(F)(F)F)ccc4[nH]3)n3ncc(Br)c3n2)CC1` [Example 344, 8-bromo-2-(4-methylpiperazin-1-yl)-N-{[5-(trifluoromethyl)-1H-benzimidazol-2-yl]methyl}pyrazolo[1,5-a][1,3,5]triazin-4-amine] were, in that order, 12400 nM and 2.7 nM.
As to `Fc1cc2nc(CNc3nc(N4C[C@H]5CC[C@@H](C4)N5)nc4c(C5CC5)cnn34)[nH]c2cc1Cl` [Example 328, N-[(6-chloro-5-fluoro-1H-benzimidazol-2-yl)methyl]-8-cyclopropyl-2-[(1R,5S)-3,8-diazabicyclo[3.2.1]octan-3-yl]pyrazolo[1,5-a][1,3,5]triazin-4-amine], the IC50 stood at 14500 nM at CDK2/CycE and 0.901 nM in experiment [1] (CAL-120, 96 h).

Values taken from patent US20230117034A1, “PYRAZOLOTRIAZINES” (Bayer Aktiengesellschaft, priority 2019, published 2023).
